Assay results reported in ChEMBL document CHEMBL3507680, “University of Dundee, Gates Library screen for HepG2 cell viability”.

experiment: Human HepG2 cell viability assay in 384 well format; format: toxicity, cell-based; parameters: dose 125 nL, time 70.5 hour; concentration not given beside the values; conditions: HepG2 cells, read-out: Inhibition

Row | SMILES | cytotoxicity at 70.5 h [%]
1 | COc1ncnc2c1CCN(C(=O)NCc1cccnc1)CC2 | 1.49
2 | CC(C)Nc1nc2c(cc1C(=O)NCC1CC1)CCN(S(C)(=O)=O)CC2 | -6.91
3 | CSC1(CNC(=O)N(C)Cc2sccc2C)CCOCC1 | 29.3
4 | CNC(=O)[C@@H](c1ccccc1OC)N1CCC[C@H]1C(=O)N1CC[C@@H](O)C1 | -3.98
5 | Cc1cc(Cl)ccc1C(=O)N[C@H]1CN(S(C)(=O)=O)C[C@@H]1C1CC1 | -0.333
6 | COc1ccccc1C1CNC(=O)c2nc(-c3c(C)n[nH]c3C)[nH]c2C1 (centres undefined) | -4.74
7 | COc1c(C2CCCN2C(=O)c2nccnc2N)c(C)nn1C (centres undefined) | -13
8 | Cc1nc(CN2CC[C@H]3[C@@H]2CCC(=O)N3c2cnn(C)c2)cs1 | 13.5
9 | O=C(O)[C@]12CN(CC3CCC3)C[C@H]1CN(c1cnccn1)C2 | -4.33
10 | c1csc(-c2noc(C3CNC3)n2)c1 | -8.98
11 | c1cc2c(cc1C1(CNC3=NCCN3)CCCC1)OCCO2 | -3.87
12 | CN(C)C(=O)Cc1ccccc1NCc1cc(C#N)ccc1F | -2.64
13 | Cn1c(C(=O)N2CCC(C(N)=O)C2)c(Cl)c2ccccc21 (centres undefined) | -5.34
14 | O=C1NCC(C(=O)Nc2ncc(Cc3ccccc3F)s2)N1 (centres undefined) | 3.26
15 | COc1ccc(-c2ccc(C(=O)O)c(F)c2)c(F)c1 | 27.5
16 | Cc1nn(C)c2c(N3CCC(C)CC3)nc(C3CC3)nc12 | -11.4
17 | CCN(CC)CCN1CC[C@H]2OCC[C@@]2(C(=O)N2CCOCC2)C1 | -14.8
18 | NC(=O)NC(=O)CCN1CCCC1c1nc(C2CCCCC2)co1 (centres undefined) | 13.4
19 | O=C(c1cc[nH]n1)N1CCc2cc(Br)sc2C1 | 15.1
20 | Cn1cc(N2CC3(CCN(Cc4nccs4)CC3)OCC2=O)cn1 | 39.5
21 | Cc1ncc(CN(C)CC(O)c2ccc(Br)cc2)s1 (centres undefined) | -12
22 | CCN(CCNCc1ccc(C#N)cc1)C1CC1 | -6.58
23 | CCc1nnsc1-c1nc(C(C)C)nn1-c1ccc2c(c1)OCO2 | -5.86

Row | SMILES | cytotoxicity at 70.5 h [%]
24 | CCc1ccccc1OCCNCCc1c[nH]cn1 | 29.6
25 | CN1CC2(CCN(C(=O)COc3ccc(Cl)cc3Cl)CC2)OC1=O | 14.5
26 | CN(C)Cc1cc(CC2(NCc3ccccc3Cl)COC2)no1 | -2.7
27 | CCc1nc(N2CCCC(CCCOC)(C(=O)O)C2)ncc1C (centres undefined) | -10.1
28 | Cc1c(C(C)NC(=O)N2CCN(C3CCCC3)CC2)cnn1C (centres undefined) | 54.3
29 | CCc1nc(CN(C)C(=O)c2ccc(OCCCOC)nc2)cs1 | -7.45
30 | Cn1nc(C2CCN(C(=O)c3cnccn3)C2)cc1CCO (centres undefined) | -2.35
31 | CN(Cc1cnn(C)c1)C1CCN(c2cccc(-c3cscn3)c2)CC1 | -2.02
32 | O=C(Cn1cc(C(=O)O)ccc1=O)Nc1ccc(F)cc1Cl | -23.3
33 | CC(C)CC(O)C1CCN(Cc2cnc(-c3cccs3)nc2)CC1 (centres undefined) | 37.1
34 | N#Cc1ccccc1N1CCCN(CC(=O)Nc2ccccc2Cl)CC1 | -6.48
35 | CN(Cc1nc2ccsc2c(=O)[nH]1)CC1CCCCC1 | -6.1
36 | CCOCCN1CCN(Cc2nc(C)no2)CC1CC (centres undefined) | -2.4
37 | COc1cccc(-c2cc(NCc3nccn3C)n(C)n2)c1 | -6.65
38 | CCc1ncnc(N2CCOCC2C2CC2)c1F (centres undefined) | -15.6
39 | CN(CCc1ccccn1)[C@@H]1CCN(c2cc(C(N)=O)ccn2)C[C@H]1O | -3.34
40 | CC(=O)c1cccc(OCCCC(=O)NC(C#N)CC(C)C)c1 (centres undefined) | -9.77
41 | COCCN1C[C@@H]2[C@@H](OC)CCN(C(=O)Cc3ccsc3)[C@@H]2C1 | -8.01
42 | Cc1c(C(=O)NC(C)C)nnn1-c1cccc(C(F)(F)F)c1 | -4.53
43 | O=C(O)[C@@]12CN(c3cnccn3)C[C@@H]1CN(C1CCCC1)C2 | -7.64
44 | CC(C)COC(=O)N1CC(=O)N(CCCc2ccccc2)CC(O)C1 (centres undefined) | -4.38
45 | Cc1ccc(CC(=O)NC(C)C(=O)N2CCS(=O)(=O)CC2)cc1 (centres undefined) | -2.68
46 | COCCC(=O)N1CCC(c2ncncc2-c2ccnc(N)c2)C1 (centres undefined) | -3.28

Row | SMILES | cytotoxicity at 70.5 h [%]
47 | N#Cc1ccsc1N1CCC(Sc2ncc[nH]2)C1=O (centres undefined) | -7.58
48 | O=C1Nc2ccccc2CC12CCCN2Cc1ccc(C(F)(F)F)cc1 (centres undefined) | 6.34
49 | CN(C)c1cccc(CNCc2ccc(N3CCOCC3)cc2)c1 | 14
50 | COC(=O)CNC(=O)N1CCC2(CC1)CC(c1ccccc1)CN(C)C2 (centres undefined) | 15.9
51 | CC1(C)CN(CC(F)(F)F)CCN1CC(=O)NC1CC1 | -6.02
52 | CN(Cc1ccncc1)CC1CCCN(CCc2ccc(Cl)cc2)C1 (centres undefined) | -0.313
53 | Cc1ccc(OCc2occc2C(=O)N2CC[C@H](CO)[C@@H](O)C2)cc1 | -8.34
54 | Cc1cc(C2CCCN2C(=O)COc2ccc(CC#N)cc2)on1 (centres undefined) | -9.16
55 | O=C(CCc1nc2cccnc2[nH]1)Nc1ccc2c(c1)OCC(=O)N2 | -10.5
56 | CC(C)n1ccnc1CN1CCCN(C(=O)c2cnc[nH]2)CC1 | -1.35
57 | CCOCCNC(=O)c1cccnc1N1CCCC1c1ccccn1 (centres undefined) | -8.32
58 | O=C(c1cccnc1)N1CCCC(c2ccnc3nccn23)C1 (centres undefined) | 7.06
59 | COC(=O)C1=NN2C(=NS(=O)(=O)c3ccccc32)N1 | -89.7
60 | COc1ccc(OC)c(CCNC(=O)CCC2CCCO2)c1 (centres undefined) | -10
61 | Cc1nccc(NCc2cncc3c2CCN(S(C)(=O)=O)C3)n1 | 1.9
62 | O=C(NCCN1C(=O)c2ccccc2C1=O)c1scnc1Cl | -7.67
63 | COCCN(C)C[C@@H]1CN(C(=O)c2ccc(=O)n(C)c2)C[C@@H]1CO | -3.56
64 | Cc1cs/c(=N/C(=O)c2csc(NCC(C)C)n2)[nH]1 | -4.1
65 | Cc1cccc(CN2CC[C@@H]3[C@@H]2CCN3C(=O)c2cc(C)on2)n1 | -12.4
66 | COC(=O)c1cccc(C(=O)NCc2ccc3c(c2)CCCN3C)c1 | -3.61
67 | CCc1nc(N)nc(N2CCCC3(CCOCC3)C2)c1C | -7.63
68 | C=C(C)CN(CC)Cc1nc(C2CC2)no1 | -5.54
69 | CC(=O)N1CCN2C(=O)N(Cc3ccc(F)cc3)C[C@H]2C1 | -13

Row | SMILES | cytotoxicity at 70.5 h [%]
70 | Cc1nc2c(c(NCCc3nccs3)n1)CCN(CC1CC1)CC2 | -14.3
71 | Cc1ccc2c(c1)CCC2NC(=O)N1CCC(C(N)=O)CC1 (centres undefined) | -6.61
72 | CN(C)CCOCc1nnc2n1CCN(CC1CC1)CC2 | 25.8
73 | COCC[C@]1(O)CCN(CC(=O)NCc2ccccc2C)C[C@H]1C | -2.23
74 | O=C(NC1CCCC1)c1n[nH]c2c1CNCC2 | -12.1
75 | O=C(c1cnc(C2CC2)nc1)N1CCC(N2CCC(O)CC2)CC1 | 14.2
76 | CC(C)c1nc(C2CCCN(C(=O)Cc3cccnc3)C2)no1 (centres undefined) | -16.6
77 | C1CCN(CCOC2CCNCC2)C1 | -2.17
78 | Cc1ccc(CN(Cc2c[nH]cn2)C2CC(C)(C)NC(C)(C)C2)o1 | -9.95
79 | CC(c1cccc(O)c1)N(C)S(=O)(=O)c1cccnc1 (centres undefined) | 4.03
80 | CC(=O)c1cc2ncc(C(=O)NC3CCCC3)cc2[nH]1 | -3.81
81 | COc1ccc(CCNC(=O)CN2CCCC2c2noc(C)n2)cc1 (centres undefined) | -1.93
82 | COc1ccccc1C1CCN(C(=O)c2ncccc2OC(C)C)C1 (centres undefined) | -1.72
83 | O=C(NCCc1csc(-c2ccncc2)n1)C1CC(=O)N(C2CC2)C1 (centres undefined) | -3.67
84 | Cc1nc2ccccc2nc1CN1CCCC1Cn1cncn1 (centres undefined) | 19.7
85 | Cc1cnn(CC2CCCN2Cc2noc(C(C)(C)C)n2)c1 (centres undefined) | -2.54
86 | Cc1nc(CCCN2CCOCC2)n(Cc2ccc(F)cc2)n1 | -12.5
87 | c1ccc(C2CCN(c3cncc(-n4cccn4)n3)CC2)cc1 | -4.22
88 | COCCN(C)c1ccc(NCc2cccnc2)nc1 | 5.65
89 | O=C(CCc1cc2n(n1)CCCNC2)N1CCSCC1 | -9.8
90 | CCN1CCN(c2ncc(-c3cc(C)no3)c(-c3ccc(C)s3)n2)CC1 | -27.4
91 | CNC(=O)[C@@H]1CN(Cc2ccccc2)C[C@H]1C(=O)c1ccc(F)cc1 | -1.84
92 | CC(C)c1nc(C2CCCN2Cc2ccno2)no1 (centres undefined) | -12

Row | SMILES | cytotoxicity at 70.5 h [%]
93 | CCNC(=O)N1CC[C@H]2CC(=O)N(CC(N)=O)CC[C@H]2C1 | -1.17
94 | Cn1cc(CN2CCC3(CC2)NC(=O)CC3c2ccncc2)cn1 (centres undefined) | 12.2
95 | CCC(C(=O)NCc1cccnc1)N(c1cccc(C)c1)S(C)(=O)=O (centres undefined) | 6.87
96 | CC1(C)Cc2cc(-c3cncn3CCNC3CCS(=O)(=O)C3)ccc2O1 (centres undefined) | -0.723
97 | CC(C)c1cc(NCC2(N3CCOCC3)CCCCC2)ncn1 | 45.2
98 | O=C(Cc1c(F)cccc1Cl)Nc1cccc(N2CCCC2)c1 | -4.34
99 | CN1CCN(c2ccc(NC(=O)c3ccccn3)c(C(F)(F)F)c2)CC1 | -5.99
100 | CC(C)Oc1ncccc1CNC(=O)N1CCC(n2cccc2)CC1 | -0.649
101 | CC(=O)c1cccc(NC(=O)COc2c(C)n(C)ccc2=O)c1 | -7.44
102 | COc1ccc(CN2C[C@H](O)C[C@H]2c2nc(-c3ccccc3)no2)cc1 | 9.25
103 | COc1ccc(-c2cc(C3CCNCC3)ccn2)cc1 | -4.77
104 | N#Cc1cn[nH]c1NCc1cc(Cl)cc(Cl)c1O | 17.4
105 | CCN(C(=O)Cn1cc(NC(=O)C(C)(C)C)cn1)c1ccccc1 | -0.681
106 | c1cncc(-c2noc(CCNc3ncnc4c3CCNCC4)n2)c1 | -7.7
107 | COc1cccc(CNC(=O)CN2CCCCC2Cn2cccn2)c1 (centres undefined) | -7.75
108 | CN1C(=O)CC(C(=O)O)C12CCN(Cc1ccc(Cl)cc1F)CC2 (centres undefined) | 2.06
109 | Cc1cc(=O)n(CC(=O)NC(C)C)c(Nc2ccc(F)c(C)c2)n1 | 23.2
110 | CCc1nnsc1C(=O)N1CCCN(Cc2ccc(F)cc2)CC1 | -9.04
111 | Cc1cc(-c2cnc(N3CCC(C(N)=O)CC3)nc2C(C)C)on1 | 9.37
112 | CN(CC1CCOC1)c1ccc(Br)cn1 (centres undefined) | 29.9
113 | Cc1csc(CN2C[C@@H]3CN(CC4CCOCC4)CCO[C@@H]3C2)n1 | -6.62
114 | CC(=O)Nc1nc(C(=O)N2CCCC2c2ccc(Br)cc2)cs1 (centres undefined) | 3.74
